What was measured:
[1] = system: respiratory syncytial virus (RSV); experiment: In vitro inhibition of viral infectivity, RSV (Example 46); type: cell-based; conditions: co-incubation of virus with HMO at 1 or 10 mg/mL
Method: In this Example, the effect of purified human milk oligosaccharides (HMO) on in vitro inhibition of viral infectivity is analyzed.
Samples are prepared by co-incubation of a uniform virus dose of from about 500 units/mL to about 1,000 units/mL of one of three respiratory viruses: (1) respiratory syncytial virus (RSV); (2) human parainfluenza virus (HPIV3); or (3) H1N1 influenza virus with one of the following HMOs: (1) 3′-sialyllactose (3′SL); (2) 6′-sialyllactose (6′SL); (3) 3′-fucosyllactose (3′FL); (4) 2′-fucosyllactose (2′FL); (5) lacto-N-neotetraose (LNnT); or (6) sialic acid (SA). The HMOs are added at concentrations of either 1 mg/mL or 10 mg/mL.

H1N1 influenza virus [2] = type: cell-based; conditions: for IC50 (mg HMO/mL) H1N1 Influenza: co-incubation of virus with HMO at 1 or 10 mg/mL
[3] = system: interferon-inducible protein 10 (IP-10); experiment: IP-10 in supernatants of RSV-infected peripheral blood mononuclear cells (Example 49); type: cell-based, Human; conditions: for IP-10 in virus-infected variables, both donors: RSV MOI 0.1, 0.1-0.5 mg/mL (LNnT 0.1-1 mg/mL); for IP-10 level relative to uninfected controls: RSV-infected PBMC; for dampening virus-induced inflammation as measured by a decrease in IP-10, comparison: compared with 3′SL; for reducing inflammation caused by RSV: pretreatment for 24 hours
Method: (§1) Specifically, either 3′SL or 6′SL is added, at concentrations of 0.1 mg/mL, 0.2 mg/mL, or 0.5 mg/mL to fresh peripheral blood mononuclear cells and incubated at 37° C. in 5% CO2 to pretreat the cells for approximately 24 hours. LNnT is added, at concentrations of 0.1 mg/mL, 0.2 mg/mL, or 1 mg/mL to fresh peripheral blood mononuclear cells and incubated at 37° C. in 5% CO2 to pretreat the cells for approximately 24 hours. Lactose is included as a carbohydrate control. Matched endotoxin unit concentration controls are included to allow differentiation of ingredient effects from inherent low levels of endotoxin. Some variables are then incubated with RSV at a multiplicity of infection (MOI) of 0.1 for approximately 1 hour at 37° C. in 5% in CO2. Uninfected control variables are incubated with medium for approximately 1 hour at 37° C. in 5% CO2. Supernatants are collected at 24 and 48 hours post-infection.
(§2) Cytokines are measured in supernatants for each variable at 24 and 48 hours to assess the effects of HMOs on the early immune response to RSV. Cytokines are measured using custom Bio-Plex Human cytokine kits from Bio-Rad. Results for interferon-inducible protein 10 (IP-10, also known as CXCL 10) are shown in FIGS. 3 and 4 for 3′SL and 6′SL, and in FIGS. 5 and 6 for LNnT. IP-10 is a CXC chemokine that attracts, binds to and activates the CXCR3 receptor on natural killer cells and memory T cells. IP-10 is expressed by monocytes and a number of other cells, and is induced by interferon. A positive correlation exists between RSV clinical disease severity in children (as measured by: length of hospital stay, fever, and number of days supplemental O2 is required) and serum IP-10. Therefore, a decrease in IP-10 signals a decrease in severity of RSV disease experienced.

interleukin 10 (IL-10) = experiment: IL-10 in supernatants of peripheral blood mononuclear cells with or without RSV (Example 49); type: cell-based, Human; conditions: in the presence or absence of RSV
Method: as §1
Cytokines are measured in supernatants for each variable at 24 and 48 hours to assess the effects of HMOs on the early immune response to RSV. Cytokines are measured using custom Bio-Plex Human cytokine kits from Bio-Rad. […] A positive correlation exists between RSV clinical disease severity in children (as measured by: length of hospital stay, fever, and number of days supplemental O2 is required) and serum IP-10. […]

[4] = system: monocyte-derived cytokines; experiment: Monocyte-derived cytokines in peripheral blood mononuclear cells with or without RSV (Example 49); type: cell-based, Human
Method: as §1, §2

rotavirus = experiment: NSP4 mRNA expression in rotavirus-treated ileal loops of piglets (Example 50); type: in vivo; conditions: HMO about 2 mg/mL plus rotavirus, 6 hours, vs RV and media
Method: Specifically, HMO and nucleotide treatment within the ileal lumen of both healthy and acutely rotavirus-infected piglets is analyzed.
Two groups of piglets (both n=9) are fed from age 48 hours to age 21 days either a low nucleotide formula comprising about 72 mg/L of a nucleotide mixture or a high nucleotide formula comprising about 320 mg/L of a nucleotide mixture.
At day 21, a midline laparotomy is performed and six loops of ilium are isolated in situ. Each loop is about 10 cm long and is followed by an inter-loop segment of about 2 cm. […]
The following treatments are injected into the loops: media; LNnT; an acidic HMO mixture comprising about 40 wt % 6′SL, about 10 wt % 3′SL, and about 50 wt % sialic acid; media and rotavirus; LNnT and rotavirus; and the acidic HMO mixture comprising about 40 wt % 6′SL, about 10 wt % 3′SL, and about 50 wt % sialic acid and rotavirus. […] Each loop is treated for 6 hours, and post-treatment reverse transcriptase products from ilium mucosal cells are analyzed by quantitative real-time PCR in TaqMan gene expression assays of the target genes NSP4, IL-8, and TNF-α. […] The expression levels of genes of interest are standardized to RPL19 mRNA and expressed as fold differences which correspond to a ratio to the mean value for the control group.

[5] = system: human parainfluenza virus (HPIV3); type: cell-based; conditions: co-incubation of virus with HMO at 1 or 10 mg/mL
H1N1 influenza virus [6] = type: cell-based; conditions: HMO at 10 mg/mL, MDCK cells, FIG. 1
[7] = in the presence or absence of the virus

Structure (SMILES) | IC50 (mg HMO/mL) RSV [1] [mg HMO/mL] | IC50 (mg HMO/mL) H1N1 Influenza (H1N1 influenza virus [2]) [mg HMO/mL] | IP-10 in virus-infected variables, both donors ([3]; 24 hours pretreatment) | IP-10 level relative to uninfected controls [3] | dampening virus-induced inflammation as measured by a decrease in IP-10, comparison [3] | reducing inflammation caused by RSV [3] | IL-10 concentration (interleukin 10 (IL-10)) | immunomodulation, production of monocyte-derived cytokines [4, 7] | NSP4 expression (rotavirus; high nucleotide formula fed group (about 320 mg/L)) | NSP4 expression (rotavirus; low nucleotide formula fed group (about 72 mg/L)) | IC50 (mg HMO/mL) HPIV3 [5] [mg HMO/mL] | anti-viral activity, H1N1 influenza virus (H1N1 influenza virus [2]; HMO at 1 mg/mL) | RSV-induced IP-10, Donor B ([3]; Donor B, 24 hours pretreatment, RSV MOI 0.1) | RSV-induced IP-10, Donor E ([3]; Donor E, 24 hours pretreatment, RSV MOI 0.1) | inhibition of virus infectivity (H1N1 influenza virus [6]) | immunomodulation, production of monocyte-derived cytokines ([4]; in the absence of the virus)
CC(=O)N[C@H]1[C@H](O[C@H]2[C@@H](O)[C@@H](CO)O[C@@H](O[C@H]3[C@H](O)[C@@H](O)C(O)O[C@@H]3CO)[C@@H]2O)O[C@H](CO)[C@@H](O[C@@H]2O[C@H](CO)[C@H](O)[C@H](O)[C@H]2O)[C@@H]1O (mixture of isomers) [LNnT, lacto-N-neotetraose] | >10 | >10 | clearly downregulates IP-10 | reduce IP-10 to levels found in uninfected controls | more effective than 3′SL | effective in reducing inflammation caused by RSV | increases IL-10 concentration in a dose-dependent manner | immunomodulatory | reduced NSP4 expression | reduced NSP4 expression | – | – | – | – | – | –
CC(=O)N[C@H]1[C@H]([C@H](O)[C@H](O)CO)O[C@@](O[C@H]2[C@@H](O)[C@@H](CO)O[C@@H](O[C@H]3[C@H](O)[C@@H](O)C(O)O[C@@H]3CO)[C@@H]2O)(C(=O)O)C[C@@H]1O (some centres unmarked) [3′SL, 3′-sialyllactose] | >10 | ~5 | dampen RSV-induced IP-10 | – | – | effective in reducing inflammation caused by RSV | – | immunomodulatory | – | – | >10 | inhibited | not effective | downregulates RSV-induced IP-10 | – | –
CC(=O)N[C@H]1[C@H]([C@H](O)[C@H](O)CO)O[C@@](OC[C@H]2O[C@@H](O[C@H]3[C@H](O)[C@@H](O)[C@H](O)O[C@@H]3CO)[C@H](O)[C@@H](O)[C@H]2O)(C(=O)O)C[C@@H]1O [6′SL, 6′-sialyllactose] | >10 | ~10 | clearly downregulates IP-10 | reduce IP-10 to levels found in uninfected controls | more effective than 3′SL | effective in reducing inflammation caused by RSV | increases interleukin 10 (IL-10) concentration in a dose-dependent manner | – | – | – | >10 | – | – | – | approximately 60% | immunomodulatory
